Here are results for two compounds from patent US20090012136A1, “UNIT DOSE FORMULATIONS AND METHODS OF TREATING AND PREVENTING THROMBOSIS WITH THROMBOXANE RECEPTOR ANTAGONISTS” (PORTOLA PHARMACEUTICALS, INC., priority 2007, published 2009).

The test system of assay [1] is platelets. The assay is described as follows: Real time perfusion chamber assay, blood perfused through collagen-coated capillaries (Example 1). The following applies: non-aspirinated blood, ifetroban added in vitro; aspirin 325 mg per day for 2 weeks; FIG. 3. The class given is cell-based, human.
For assay [2], the system named is platelets. Description: Collagen-induced platelet aggregation by light transmittance aggregometry (LTA) in PRP (Example 1). The class given is cell-based, human. On the procedure:
(§1) Blood from healthy individuals (n=6-7) was obtained by venipuncture and anticoagulated with FXa inhibitor. Platelet rich plasma (PRP) was obtained, and LTA was performed by standard procedures, initiating platelet aggregation with U-46619 (10 μM) or collagen (4 μg/ml).
LTA was performed on PRP samples using collagen (4 micrograms/ml) to induce platelet aggregation.

In assay [3] the test system is platelets. Description: U-46619-induced platelet aggregation by light transmittance aggregometry (LTA) in PRP. The class given is cell-based, human. How it is done:
as §1

Assay [4] deals with platelets. Description: Arachidonic acid-induced platelet aggregation LTA (Example 2). The class given is cell-based, human. The settings on record: all three tested doses (1 μM, 350 nM, 100 nM); healthy volunteers and AERD patients; FIGS. 7A and 7B. How it is done:
(§2) Light transmittance aggregometry (LTA) assays were performed by standard procedures, initiating platelet aggregation with collagen or arachidonic acid.
(§3) Assays were performed pre- (+/−ifetroban, spiked in vitro) and post-aspirin desensitization.

Assay [5] relates to platelets. Description: Collagen-induced platelet aggregation LTA, healthy volunteers and AERD patients (Example 2). The class given is cell-based, human. The following applies: for anti-aggregatory activity in collagen-induced platelet aggregation assay: FIG. 5. On the procedure:
as §2, §3

The subject of assay [6] is platelets. The assay is described as follows: Real time perfusion chamber assay (RTTP), healthy volunteers and AERD patients (Example 2). The class given is cell-based, human. The following applies: 100 nM or 350 nM spiked in vitro. On the procedure:
Real time perfusion chamber assays (RTTP) were performed using blood anticoagulated with Fxa inhibitor (10 uM 034) and perfused through collagen-coated capillaries (1100/sec). Thrombus formation on the collagen surface was monitored in real time using fluorescence microscopy to detect fluorescently labeled (R6G) platelets.
as §3

For assay [7] the following is noted: hundreds of randomized clinical trials; BMJ 324:71-86 (2002); cited from earlier work.

Regarding `CCCCCNC(=O)c1coc([C@H]2[C@@H](Cc3ccccc3CCC(=O)[O-])[C@@H]3CC[C@H]2O3)n1.[Na+]` [ifetroban, [1S-(1α,2α,3α,4α)]-2-[[3-[4-[(pentylamino)carbonyl]-2-oxazolyl]-7-oxabicyclo[2.2.1]hept-2-yl]methyl]benzenepropanoic acid], the “concentration providing equivalent or superior inhibitory activity on thrombosis as aspirin” value in the assay with platelets [1] is no less than 300 nM. Also, the “concentration in collagen-induced assay relative to that predicted by U-46619-induced assay” value with platelets [2] (350 nM v. 30 nM) was “approximately 10 times”. The “concentration for maximum inhibition of collagen-induced platelet aggregation” value with platelets [2] (collagen 4 μg/ml, non-aspirinated PRP, ifetroban added in vitro, FIG. 2) is listed as “greater than or equal to 350 nM”. Further, the “amount required to inhibit collagen-induced versus U-46619-induced platelet aggregation” value in the assay on platelets [2] (collagen versus U-46619) is given as “approximately 10 fold”. Besides, in the assay with platelets [3] (U-46619 10 μM, PRP anticoagulated with FXa inhibitor, ifetroban added in vitro, FIG. 2), the “concentration that fully inhibited U-46619-induced platelet aggregation” value was greater than 30 nM. For the same compound, in the assay with platelets [3] (U-46619-induced platelet aggregation), the “concentration predicted by U-46619-induced platelet aggregation assays” value is on record as 30 nM. For the same compound, the “effect on arachidonic acid-induced platelet aggregation” value with platelets [4] is reported as “fully blocked”. Besides, the “anti-aggregatory activity in collagen-induced platelet aggregation assay” value in the assay on platelets [5] (AERD patients) and with platelets [5] (healthy volunteers) was “significant anti-aggregatory activity” in each case. Also, the “concentration reproducing aspirin effects on collagen-induced platelet aggregation and thrombosis” value with platelets [5] (AERD patients, FIG. 5B) was greater than 100 nM; in the assay with platelets [5] (normal volunteers, FIG. 5A) it was greater than 100 nM. Besides, the “concentration showing statistically significant inhibition of collagen-induced platelet aggregation” value is greater than 100 nM in the assay with platelets [5] (AERD patients, FIG. 5B) and greater than 100 nM in the assay with platelets [5] (normal volunteers (P=0.0281), FIG. 5A). The “inhibition of platelet aggregation compared with aspirin” value with platelets [5] (healthy volunteers, 100 nM ifetroban) is “significantly lower inhibition of platelet aggregation than aspirin”. The “antithrombotic activity in perfusion chamber assay” value with platelets [6] (AERD patients, FIG. 4B) was “significant antithrombotic activity”; in the assay on platelets [6] (healthy volunteers, FIG. 4A) it was “significant antithrombotic activity”.

For the compound `CC(=O)Oc1ccccc1C(=O)O` [aspirin], in the assay with platelets [2] (twenty healthy individuals, aspirin 325 mg/day for two weeks, collagen 4 micrograms/ml, PRP), the “reduction of the extent of collagen-induced platelet aggregation v. baseline (mean+sem)” value is recorded as 39+/−6.0%. The “reduction in adverse events” value in assay [7] is 20-25%.
